# In patent US20170057958A1, “ENANTIOMERS OF THE N-(2-AMINO-5-FLUORO-2-METHYLPENTYL)-8-[(2,6-DIFLUOROBENZYL)OXY]-2-METHYLIMIDAZO[1,2-A]PYRIDINE-3-CARBOXAMIDE, AS WELL AS OF THE DI- AND TRIFLUORO DERIVATIVES FOR THE TREATMENT OF CARDIOVASCULAR DISEASES” (BAYER PHARMA AKTIENGESELLSCHAFT, priority 2014, published 2017):
# System: recombinant guanylate cyclase reporter cell line
# Assay: Effect on a recombinant guanylate cyclase reporter cell line
# Assay type: cell-based
# Details: in some cases mean values for individual determinations
# Method: B-2. Effect on a Recombinant Guanylate Cyclase Reporter Cell Line
# The cellular activity of the compounds according to the invention is determined using a recombinant guanylate cyclase reporter cell line, as described in F. Wunder et al., Anal. Biochem. 339, 104-112 (2005).
# Representative MEC values (MEC=minimum effective concentration) for the compounds of the invention are shown in the table below (in some cases as mean values for individual determinations): […]
compound,measurement,value
"Cc1nc2c(OCc3c(F)cccc3F)cccn2c1C(=O)NCC(C)(N)CC(F)F (single isomer, unassigned; enantiomer b) [Example 4, ent-N-(2-amino-4,4-difluoro-2-methylbutyl)-8-[(2,6-difluorobenzyl)oxy]-2-methylimidazo[1,2-a]pyridine-3-carboxamide (enantiomer B)]",MEC (minimum effective concentration),0.3 µM
"Cc1nc2c(OCc3c(F)cccc3F)cccn2c1C(=O)NCC(C)(N)CC(F)F (single isomer, unassigned; enantiomer a) [Example 3, ent-N-(2-amino-4,4-difluoro-2-methylbutyl)-8-[(2,6-difluorobenzyl)oxy]-2-methylimidazo[1,2-a]pyridine-3-carboxamide (enantiomer A)]",MEC (minimum effective concentration),0.3 µM
"Cc1nc2c(OCc3c(F)ccc(F)c3F)cccn2c1C(=O)NCC(C)(N)CCC(F)(F)F (single isomer, unassigned; enantiomer b) [Example 7, ent-N-(2-amino-5,5,5-trifluoro-2-methylpentyl)-2-methyl-8-[(2,3,6-trifluorobenzyl)oxy]imidazo[1,2-a]pyridine-3-carboxamide (enantiomer B)]",MEC (minimum effective concentration),0.09 µM
"Cc1nc2c(OCc3c(F)cccc3F)cccn2c1C(=O)NCC(C)(N)CCCF (single isomer, unassigned; enantiomer b) [Example 2, ent-N-(2-amino-5-fluoro-2-methylpentyl)-8-[(2,6-difluorobenzyl)oxy]-2-methylimidazo[1,2-a]pyridine-3-carboxamide (enantiomer B)]",MEC (minimum effective concentration),0.3 µM
"Cc1nc2c(OCc3c(F)cccc3F)cccn2c1C(=O)NCC(C)(N)CCC(F)(F)F (single isomer, unassigned; enantiomer a) [Example 5, ent-N-(2-amino-5,5,5-trifluoro-2-methylpentyl)-8-[(2,6-difluorobenzyl)oxy]-2-methylimidazo[1,2-a]pyridine-3-carboxamide (enantiomer A)]",MEC (minimum effective concentration),0.1 µM
"Cc1nc2c(OCc3c(F)cccc3F)cccn2c1C(=O)NCC(C)(N)CCC(F)(F)F (single isomer, unassigned; enantiomer b) [Example 6, ent-N-(2-amino-5,5,5-trifluoro-2-methylpentyl)-8-[(2,6-difluorobenzyl)oxy]-2-methylimidazo[1,2-a]pyridine-3-carboxamide (enantiomer B)]",MEC (minimum effective concentration),0.03 µM
"Cc1nc2c(OCc3c(F)cccc3F)cccn2c1C(=O)NCC(C)(N)CCCF (single isomer, unassigned; enantiomer a) [Example 1, ent-N-(2-amino-5-fluoro-2-methylpentyl)-8-[(2,6-difluorobenzyl)oxy]-2-methylimidazo[1,2-a]pyridine-3-carboxamide (enantiomer A)]",MEC (minimum effective concentration),0.3 µM
